From PMC11831560, “Development of the Pyrido[2,3-d]pyrimidin-7(8H)-one Scaffold toward Potent and Selective NUAK1 Inhibitors” (ACS Medicinal Chemistry Letters, 2025)

Legend:
Assay in all cases: Kinase panel radiometric filter binding (33P-ATP)
Type in all cases: biochemical
Parameters in all cases: % activity remaining: dose or concentration left out as unconfirmed
IR = IR (Homo sapiens, UniProt P06213); conditions: for % activity remaining: IR
Protocol: (§1) Table S4: AMPKA kinase activity data (ADP-Glo assay)
(§2) Compound pIC50 (Fold selectivity
(§3) Table S5. Kinase selectivity screening for 9 and 24 at 1 µM against a general kinase panel of 140 targets
(§4) in radiometric filter binding assay using 33P-γ−ATP at the MRC PPU International Centre for Kinase
(§5) Profiling, University of Dundee. pIC50 values were determined for compounds with <20% activity
(§6) Kinase activity s.d. pIC50 activity s.d. pIC50

VEG-FR = biological target: T1, VEG-FR (Homo sapiens, UniProt P17948); conditions: for % activity remaining: VEG-FR
T1 sequence (P17948 784-1338 limits assumed): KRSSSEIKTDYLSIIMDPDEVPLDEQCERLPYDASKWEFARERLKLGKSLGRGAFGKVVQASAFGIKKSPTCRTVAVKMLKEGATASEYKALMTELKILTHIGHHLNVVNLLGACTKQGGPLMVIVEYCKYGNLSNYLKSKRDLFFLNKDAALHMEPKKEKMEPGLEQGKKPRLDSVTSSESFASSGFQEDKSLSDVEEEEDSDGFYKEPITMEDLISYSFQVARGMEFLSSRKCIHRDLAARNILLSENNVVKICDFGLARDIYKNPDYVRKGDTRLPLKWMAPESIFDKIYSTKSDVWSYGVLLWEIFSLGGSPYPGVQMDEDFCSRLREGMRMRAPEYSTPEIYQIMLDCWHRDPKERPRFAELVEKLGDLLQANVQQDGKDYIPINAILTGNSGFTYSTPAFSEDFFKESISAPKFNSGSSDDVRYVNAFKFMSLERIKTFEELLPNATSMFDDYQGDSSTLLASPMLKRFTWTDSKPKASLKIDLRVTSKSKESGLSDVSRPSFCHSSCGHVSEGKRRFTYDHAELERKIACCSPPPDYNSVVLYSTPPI
Protocol: as §1, §2, §3, §4, §5, §6

MST3 = MST3 (Homo sapiens, UniProt Q9Y6E0); conditions: for % activity remaining: MST3
Protocol: as §1, §2, §3, §4, §5, §6

MELK = MELK (Homo sapiens, UniProt Q14680); conditions: for % activity remaining: MELK
Protocol: as §1, §2, §3, §4, §5, §6

IGF-1R = IGF-1R (Homo sapiens, UniProt P08069); conditions: for % activity remaining: IGF-1R
Protocol: as §1, §2, §3, §4, §5, §6

TAK1 = biological target: T2, TAK1 (Homo sapiens, UniProt O43318); conditions: for % activity remaining: TAK1
T2 sequence (O43318 1-303 limits assumed): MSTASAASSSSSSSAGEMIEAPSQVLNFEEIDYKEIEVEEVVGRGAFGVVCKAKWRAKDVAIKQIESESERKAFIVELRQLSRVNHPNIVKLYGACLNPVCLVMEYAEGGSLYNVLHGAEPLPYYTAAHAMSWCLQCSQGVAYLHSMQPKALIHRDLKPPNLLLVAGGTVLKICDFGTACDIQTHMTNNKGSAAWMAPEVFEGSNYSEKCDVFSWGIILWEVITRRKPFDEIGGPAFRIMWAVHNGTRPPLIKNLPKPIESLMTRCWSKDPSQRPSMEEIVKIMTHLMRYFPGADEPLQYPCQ
Protocol: as §1, §2, §3, §4, §5, §6

JAK3 = biological target: T3, JAK3 (Homo sapiens, UniProt P52333); conditions: for % activity remaining: JAK3
T3 sequence (P52333 1-1124): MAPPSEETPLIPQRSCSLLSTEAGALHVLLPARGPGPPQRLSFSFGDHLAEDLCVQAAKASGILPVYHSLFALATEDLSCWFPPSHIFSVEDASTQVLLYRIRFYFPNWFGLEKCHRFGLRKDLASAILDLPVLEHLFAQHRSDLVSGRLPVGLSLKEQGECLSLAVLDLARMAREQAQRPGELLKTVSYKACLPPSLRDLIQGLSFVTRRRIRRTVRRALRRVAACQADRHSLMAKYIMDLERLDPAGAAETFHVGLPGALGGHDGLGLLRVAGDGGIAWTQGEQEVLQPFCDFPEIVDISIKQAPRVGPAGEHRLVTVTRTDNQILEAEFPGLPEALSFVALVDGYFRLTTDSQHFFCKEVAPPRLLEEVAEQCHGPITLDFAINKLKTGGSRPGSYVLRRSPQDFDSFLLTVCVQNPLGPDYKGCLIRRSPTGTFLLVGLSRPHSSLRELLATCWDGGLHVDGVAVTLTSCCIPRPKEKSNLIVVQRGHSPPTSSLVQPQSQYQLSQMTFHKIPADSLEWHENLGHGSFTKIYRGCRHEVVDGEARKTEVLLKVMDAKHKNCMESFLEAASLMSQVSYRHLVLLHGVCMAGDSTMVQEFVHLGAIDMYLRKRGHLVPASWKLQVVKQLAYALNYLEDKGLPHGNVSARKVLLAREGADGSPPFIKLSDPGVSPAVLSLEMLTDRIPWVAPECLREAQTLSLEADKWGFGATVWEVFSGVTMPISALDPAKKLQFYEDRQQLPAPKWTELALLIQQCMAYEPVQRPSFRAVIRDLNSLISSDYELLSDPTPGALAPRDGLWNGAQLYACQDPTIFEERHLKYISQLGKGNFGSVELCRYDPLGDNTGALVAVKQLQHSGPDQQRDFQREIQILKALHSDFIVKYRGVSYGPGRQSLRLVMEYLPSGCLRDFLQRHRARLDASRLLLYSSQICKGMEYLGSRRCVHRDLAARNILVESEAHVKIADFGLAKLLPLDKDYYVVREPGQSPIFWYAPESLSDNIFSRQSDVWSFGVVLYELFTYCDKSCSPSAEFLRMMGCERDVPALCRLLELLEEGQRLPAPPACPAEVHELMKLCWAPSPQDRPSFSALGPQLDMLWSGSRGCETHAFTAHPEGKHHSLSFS
Protocol: as §1, §2, §3, §4, §5, §6

[1] = radiometric filter binding panel

Sequence of IGF-1R (P08069 31-1367, species assumed): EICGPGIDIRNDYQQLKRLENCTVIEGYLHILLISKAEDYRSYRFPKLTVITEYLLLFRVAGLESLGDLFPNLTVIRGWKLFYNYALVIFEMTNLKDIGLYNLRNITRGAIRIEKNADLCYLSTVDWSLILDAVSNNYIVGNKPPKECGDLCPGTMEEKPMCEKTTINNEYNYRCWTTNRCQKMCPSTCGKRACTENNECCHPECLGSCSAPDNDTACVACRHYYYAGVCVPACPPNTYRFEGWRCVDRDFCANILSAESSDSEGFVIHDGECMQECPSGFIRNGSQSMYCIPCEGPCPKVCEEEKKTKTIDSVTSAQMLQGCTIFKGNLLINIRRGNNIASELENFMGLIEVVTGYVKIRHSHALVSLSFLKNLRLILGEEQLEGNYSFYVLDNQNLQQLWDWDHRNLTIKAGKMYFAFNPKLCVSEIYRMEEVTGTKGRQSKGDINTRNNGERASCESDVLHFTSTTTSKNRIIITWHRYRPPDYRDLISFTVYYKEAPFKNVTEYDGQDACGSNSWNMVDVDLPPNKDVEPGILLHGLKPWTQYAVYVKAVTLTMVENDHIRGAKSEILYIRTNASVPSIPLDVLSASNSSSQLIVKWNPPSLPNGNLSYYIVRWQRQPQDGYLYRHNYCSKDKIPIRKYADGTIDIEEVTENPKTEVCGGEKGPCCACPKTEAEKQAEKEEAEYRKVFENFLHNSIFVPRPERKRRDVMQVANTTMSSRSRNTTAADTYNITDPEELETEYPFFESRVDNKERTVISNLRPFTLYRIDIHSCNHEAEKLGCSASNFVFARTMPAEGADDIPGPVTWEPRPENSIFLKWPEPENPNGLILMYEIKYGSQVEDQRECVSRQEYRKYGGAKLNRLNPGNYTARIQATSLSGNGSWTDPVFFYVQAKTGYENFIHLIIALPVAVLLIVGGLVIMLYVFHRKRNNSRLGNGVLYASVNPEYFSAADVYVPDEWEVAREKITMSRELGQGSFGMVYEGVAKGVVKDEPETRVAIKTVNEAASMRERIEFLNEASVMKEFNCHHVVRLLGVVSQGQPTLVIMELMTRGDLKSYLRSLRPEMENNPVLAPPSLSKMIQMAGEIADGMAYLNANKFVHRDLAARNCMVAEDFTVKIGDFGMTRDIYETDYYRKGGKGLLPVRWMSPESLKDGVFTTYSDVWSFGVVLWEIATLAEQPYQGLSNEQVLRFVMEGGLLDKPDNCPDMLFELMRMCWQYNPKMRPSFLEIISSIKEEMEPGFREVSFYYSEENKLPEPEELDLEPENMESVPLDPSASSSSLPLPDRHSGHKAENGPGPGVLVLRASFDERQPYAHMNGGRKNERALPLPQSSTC
Sequence of MELK (Q14680 whole entry, species assumed): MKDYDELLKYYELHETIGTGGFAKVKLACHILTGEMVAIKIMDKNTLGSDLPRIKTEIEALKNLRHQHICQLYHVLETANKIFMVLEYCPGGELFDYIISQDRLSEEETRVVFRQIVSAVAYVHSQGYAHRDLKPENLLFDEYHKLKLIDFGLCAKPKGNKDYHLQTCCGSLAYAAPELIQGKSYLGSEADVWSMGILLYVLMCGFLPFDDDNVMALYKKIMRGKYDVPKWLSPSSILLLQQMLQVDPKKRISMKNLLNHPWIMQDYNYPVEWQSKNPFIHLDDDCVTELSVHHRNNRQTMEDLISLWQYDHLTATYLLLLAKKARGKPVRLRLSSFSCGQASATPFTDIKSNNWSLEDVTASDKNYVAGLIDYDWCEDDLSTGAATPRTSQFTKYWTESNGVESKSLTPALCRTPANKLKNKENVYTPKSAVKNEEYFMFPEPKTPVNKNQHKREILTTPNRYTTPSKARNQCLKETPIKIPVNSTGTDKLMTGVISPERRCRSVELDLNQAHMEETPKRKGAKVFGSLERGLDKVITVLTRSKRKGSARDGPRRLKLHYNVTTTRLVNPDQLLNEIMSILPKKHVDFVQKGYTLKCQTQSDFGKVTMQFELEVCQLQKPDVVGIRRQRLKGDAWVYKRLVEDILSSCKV
Sequence of IR (P06213 28-1382): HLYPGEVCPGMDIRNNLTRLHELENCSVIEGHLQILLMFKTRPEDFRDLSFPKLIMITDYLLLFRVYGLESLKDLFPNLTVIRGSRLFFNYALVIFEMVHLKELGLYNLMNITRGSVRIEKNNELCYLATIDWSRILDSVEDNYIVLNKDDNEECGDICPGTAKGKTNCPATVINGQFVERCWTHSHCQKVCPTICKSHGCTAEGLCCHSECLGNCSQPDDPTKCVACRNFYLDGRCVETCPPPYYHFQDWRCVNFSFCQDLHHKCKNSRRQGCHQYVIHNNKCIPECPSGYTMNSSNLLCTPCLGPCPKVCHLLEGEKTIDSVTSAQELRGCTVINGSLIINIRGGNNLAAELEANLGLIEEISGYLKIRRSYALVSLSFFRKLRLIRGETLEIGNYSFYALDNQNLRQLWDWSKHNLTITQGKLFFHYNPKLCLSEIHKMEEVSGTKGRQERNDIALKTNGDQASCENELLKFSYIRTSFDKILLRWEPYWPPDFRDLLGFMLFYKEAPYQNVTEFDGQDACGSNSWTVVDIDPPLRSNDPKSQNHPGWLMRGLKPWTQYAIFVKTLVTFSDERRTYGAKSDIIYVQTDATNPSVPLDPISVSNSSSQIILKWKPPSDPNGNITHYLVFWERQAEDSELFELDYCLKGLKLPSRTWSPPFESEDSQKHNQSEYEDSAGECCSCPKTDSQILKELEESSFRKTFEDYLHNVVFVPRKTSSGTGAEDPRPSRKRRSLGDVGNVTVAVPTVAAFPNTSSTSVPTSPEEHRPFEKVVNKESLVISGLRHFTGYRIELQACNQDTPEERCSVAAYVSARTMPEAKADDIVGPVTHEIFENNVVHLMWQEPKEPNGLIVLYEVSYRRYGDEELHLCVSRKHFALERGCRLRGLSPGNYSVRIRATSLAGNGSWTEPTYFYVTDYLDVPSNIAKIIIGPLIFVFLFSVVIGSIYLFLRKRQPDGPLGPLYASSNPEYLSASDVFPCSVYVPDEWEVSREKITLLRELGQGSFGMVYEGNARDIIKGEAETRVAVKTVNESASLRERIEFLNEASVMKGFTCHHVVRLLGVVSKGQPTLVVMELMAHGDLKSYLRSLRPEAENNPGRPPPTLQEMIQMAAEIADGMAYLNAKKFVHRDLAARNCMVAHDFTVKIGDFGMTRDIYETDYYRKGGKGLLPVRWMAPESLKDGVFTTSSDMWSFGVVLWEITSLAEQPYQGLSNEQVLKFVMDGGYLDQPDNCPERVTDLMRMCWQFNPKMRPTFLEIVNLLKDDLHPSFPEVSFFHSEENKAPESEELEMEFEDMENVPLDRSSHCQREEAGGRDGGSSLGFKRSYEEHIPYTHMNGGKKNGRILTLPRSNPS
Sequence of MST3 (Q9Y6E0 whole entry, species assumed): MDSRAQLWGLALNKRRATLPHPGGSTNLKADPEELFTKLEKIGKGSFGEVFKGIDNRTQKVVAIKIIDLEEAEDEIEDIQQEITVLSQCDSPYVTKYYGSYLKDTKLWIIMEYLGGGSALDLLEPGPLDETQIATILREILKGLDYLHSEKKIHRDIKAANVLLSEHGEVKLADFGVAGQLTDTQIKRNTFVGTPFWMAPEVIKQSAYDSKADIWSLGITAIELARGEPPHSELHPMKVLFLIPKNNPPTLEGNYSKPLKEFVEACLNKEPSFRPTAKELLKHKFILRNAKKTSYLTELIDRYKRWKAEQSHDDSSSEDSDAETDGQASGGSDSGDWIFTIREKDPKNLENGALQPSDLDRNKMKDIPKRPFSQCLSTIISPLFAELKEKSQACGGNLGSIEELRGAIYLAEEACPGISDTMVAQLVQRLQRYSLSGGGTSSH

Row | Structure (SMILES) | % activity remaining (IR) [%] | IC50 (IR; radiometric filter binding panel, read-out: IR pIC50 (converted)) [nM] | % activity remaining (VEG-FR) [%] | % activity remaining (MST3) [%] | MST3 pIC50 (MST3; [1]) | IC50 (MST3; radiometric filter binding panel, read-out: MST3 pIC50 (converted)) [nM] | % activity remaining (MELK) [%] | MELK pIC50 (MELK; [1]) | IC50 (MELK; radiometric filter binding panel, read-out: MELK pIC50 (converted)) [nM] | % activity remaining (IGF-1R) [%] | IC50 (IGF-1R; radiometric filter binding panel, read-out: IGF-1R pIC50 (converted)) [nM] | % activity remaining (TAK1) [%] | IC50 (TAK1; radiometric filter binding panel, read-out: TAK1 pIC50 (converted)) [nM] | % activity remaining (JAK3) [%] | IC50 (VEG-FR; radiometric filter binding panel, read-out: VEG-FR pIC50 (converted)) [nM] | JAK3 pIC50 (JAK3; [1]) | IC50 (JAK3; radiometric filter binding panel, read-out: JAK3 pIC50 (converted)) [nM]
1 | Cc1cc(=O)n(C2CCCC2)c2nc(Nc3ccc(N4CC5CC(C4)N5C)cc3)ncc12 [Compound 9] | 14 | 263 | 71 | 17 | > 7 | 112 | 6 | > 7 | 53.7 | 18 | 1050 | 6 | 209 | 22 | – | – | –
2 | CN1C2CC1CN(c1ccc(Nc3ncc4ccn(CC5CCOCC5)c4n3)cc1)C2 [Compound 24] | 87 | – | 17 | 84 | – | – | 95 | – | – | 104 | – | 110 | – | 7 | 295 | 7.6 | 23.4
